Values belong to the molecule of their own block, whether it stands above or below them.
Assays:
Cyclo-oxygenase (COX) = assay: Cyclo-oxygenase assay in RBL 2H3 cells (PGD2 EIA); assay type: cell-based, rat
Description: Cyclo-oxygenase (COX) assay was performed with cells in culture prepared from rat basophilic leukemia (RBL) 2H3 cell lines. Cells were cultured in EMEM containing 10% fetal calf serum and antibiotic until cells reached confluence. Harvested cells were subsequently seeded on 24-well plates at 1 x 10^6 cells/ml then incubated at 37°C for 3 hours. Cells were washed twice with incubation buffer (1.5 ml) containing 5 mM Hepes, 140 mM NaCl, 5 mM KCl, 0.6 mM MgCl2, 1 mM CaCl2 and […]. Cells were then covered with 0.49 ml of buffer, followed by addition of samples/solvents (0.005 ml) and incubated at 37 °C for 5 min on an orbital shaker. Arachidonic acid (0.005 ml, containing 50% EtOH) was subsequently added, and the plate was incubated at similar conditions for a further 10 min. The supernatant (0.1 ml) was aliquoted for methoxime derivatisation of PGD2, which was carried out by heating the supernatant with methoxime solution (1:1) at 60 °C for 30 min according to the instructions provided with the kit. The resultant solution was diluted with EIA buffer and stored on ice for EIA, following the protocol provided with the kit.
Validation of COX enzyme activity was carried out using EIA in which the enzyme activity was characterised against various concentrations of AA and a time course of enzyme activity.
[…] Indomethacin was used as reference compound. The concentration of DMSO in the assay was maintained at 1.5%.

DRG neuronal cells = assay: Peak [Ca^2+]i transients in cultured dorsal root ganglion neurons (Fura-2); assay type: cell-based, rat; settings: for Number of capsaicin-sensitive cells responding / Peak [Ca^2+]i (Average ±SD): 2 mM Ca^2+
Description: DRG from neonatal (3-5 days old) rat or adult Sprague-Dawley rats were incubated in Hanks CMF saline with 0.05% collagenase and 0.25% trypsin for 25 min at 37° C. Individual cells were obtained by trituration with fire polished Pasteur pipettes of diminishing diameters. Neurones were isolated from the cell suspension in 30% Percoll and then plated on collagen coated coverslips or in 24-well plates, then cultured in neurobasal medium with B27 supplement, 50 ng/ml 2.5 S nerve growth factor, 2 mM 1-glutamine and 100 U/ml penicillin/streptomycin. Cultures were maintained at 37° C with 5% CO2. 30% Percoll increases the percentage of capsaicin-sensitive DRG neurones up to 70%. For peak [Ca^2+]i transients measurements, cells on coverslips were incubated with 5 µM Fura-2 AM for 30 min at 37° C. The coverslips were then mounted on a chamber attached to a fast sample application perfusion system which allows changing solutions in the second range. Recordings were made on the stage of a Nikon Diaphot inverted microscope fitted with a Nikon 40 x Fluo (NA 0.85) DL Ph3 or 40 x Fluo (NA 1.3) oil objective. [Ca^2+]i was calculated from dual excitation wavelength (340/380 nm) fluorescence measurements following an intracellular calibration procedure by the Grynkiewicz equation, using MCID M2/M4 v.3.0 (Imaging Res. Inc.) software. Cells were continuously perfused with a solution consisting of 140 mM NaCl, 2 mM CaCl2, 5 mM KCl, 20 mM HEPES, 10 mM glucose, pH 7.4. To study KCl evoked depolarisation, 50 mM NaCl was replaced by equimolar KCl. Cytoplasmic localisation of Fura-2 was tested with the Mn^2+ quenching technique (Dedov and Roufogalis, 1998). All experiments were performed at room temperature (20-23°C).
Typical changes in [Ca^2+]i upon depolarisation were evoked by 50 mM KCl and by application of 1 µM capsaicin; both were applied for 30 sec. Capsaicin-evoked peak [Ca^2+]i transients are characterised by a fast rise and long-steady state [Ca^2+]i clearance from the cytoplasm. In capsaicin-sensitive cells the half-time of cytoplasmic Ca^2+ clearance was proportional to the amplitudes of peak [Ca^2+]i transients.
To examine the effect of gingerol derivatives, one or several compounds in succession at a concentration of 10 µM were applied for 1 min to the DRG neuronal cells followed by washing out for 4 min with physiological solution. To the capsaicin-sensitive cells, 10 µM capsaicin and 50 mM KCl were applied, respectively, to confirm the viability of the cells. In addition, morphological appearances of the cells were also examined at the end of experiment. […]

Lipoxygenase (LP) = biological target: T1, Lipoxygenase (LP) (Rattus norvegicus, UniProt P12527); assay: Lipoxygenase assay with cell-free enzyme from RBL 2H3 cells (EIA); assay type: biochemical; settings: for activity at 10 µM: final concentration of 10 µM
T1 construct: cell-free enzyme (Wong et al, 1991) prepared from rat basophilic leukemia (RBL) 2H3 cell lines; endogenous in cells; host or cells: RBL 2H3 (rat basophilic leukemia), 15,000 g supernatant of cells disrupted by nitrogen cavitation
T1 sequence (P12527 1-673): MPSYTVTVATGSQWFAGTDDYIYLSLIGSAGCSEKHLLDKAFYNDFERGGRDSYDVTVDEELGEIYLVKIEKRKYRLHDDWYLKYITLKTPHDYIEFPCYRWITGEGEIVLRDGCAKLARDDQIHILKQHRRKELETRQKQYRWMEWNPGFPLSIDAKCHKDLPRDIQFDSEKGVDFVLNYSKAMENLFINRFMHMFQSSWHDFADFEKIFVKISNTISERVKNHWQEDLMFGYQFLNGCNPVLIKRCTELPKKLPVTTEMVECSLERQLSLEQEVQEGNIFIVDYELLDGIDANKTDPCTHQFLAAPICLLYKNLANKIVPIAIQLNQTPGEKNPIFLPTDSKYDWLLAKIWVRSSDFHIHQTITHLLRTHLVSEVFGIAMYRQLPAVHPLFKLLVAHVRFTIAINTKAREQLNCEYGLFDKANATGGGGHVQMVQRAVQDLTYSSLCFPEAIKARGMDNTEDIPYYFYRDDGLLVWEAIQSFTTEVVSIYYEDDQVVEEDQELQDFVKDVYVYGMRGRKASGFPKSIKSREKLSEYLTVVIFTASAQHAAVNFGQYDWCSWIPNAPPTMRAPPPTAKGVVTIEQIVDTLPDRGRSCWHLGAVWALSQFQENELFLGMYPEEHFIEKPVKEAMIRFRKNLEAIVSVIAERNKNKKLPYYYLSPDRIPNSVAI
Description: Lipoxygenase (LP) assay was performed with cell-free enzyme (Wong et al, 1991) prepared from rat basophilic leukemia (RBL) 2H3 cell lines. Cells were cultured in EMEM containing 10% fetal calf serum and antibiotic until cells reached confluence. Harvested cells were resuspended in Hepes (10 mM) buffer, pH 7.4, containing 1 mM EDTA at 1 x 10^7 cells/ml, and disrupted by nitrogen cavitation using a Parr bomb at 750 psi for 15 min. The broken cells were centrifuged at 15,000 g for 30 min. Aliquots (0.1 ml) of the supernatant were preincubated with or without drugs in Hepes buffer (10 mM Hepes, pH 7, 1 mM EDTA and 150 mM NaCl) for 5 min, and the reaction was initiated with the addition of 50 µl of CaCl2 (16 mM), 50 µl of ATP (2 mM), 5 µl of PAF (2.5 mg/ml) and 5 µl of AA (2.5 mM). The reaction mixture ([…]) was incubated at room temperature for a further 8 min, then diluted with EIA buffer at 1/200 and 1/2000 dilutions and stored on ice for EIA following the protocol provided with the kit.
Validation of LP enzyme activity was carried out by a UV spectrophotometric method in which the enzyme activity was characterised against various concentrations of Ca^2+, ATP, PAF and AA with the measurement of the formation of diene conjugated products of LP at 235 nm.
All compounds were dissolved in DMSO and assayed at a final concentration of 10 µM. NDGA was used as reference compound. The concentration of DMSO in the assay was maintained at 1.5%.

guinea pig atria = assay: Organ bath assay on isolated guinea pig atria (rate and force of contraction)
Description: Male guinea pigs, 3-4 weeks old, were killed by rapid cervical dislocation without induced anaesthesia. Then, the guinea pigs were dissected to isolate the atria which were immediately mounted vertically in an organ bath containing Krebs-Henseleit solution oxygenated with carbogen.
One gram tension was applied to the atria and the base line continuously adjusted until it was stable for 20 mins. The rate and force of contraction were recorded using Mac Lab equipment.
Test substances in DMSO were assayed to a maximum concentration of 50 µM at a final concentration of 2.5 % of DMSO.

SR Ca^2+-ATPase = biological target: T2, SR Ca^2+-ATPase (Canis lupus familiaris, UniProt O46674); assay: Sarcoplasmic reticulum Ca^2+-ATPase assay; assay type: biochemical, dog; settings: result in words
T2 construct: Effect of gingerols and their derivatives on the Ca^2+-ATPase activity of dog cardiac SR; from tissue; host or cells: dog heart (cardiac sarcoplasmic reticulum)
T2 sequence (O46674 whole entry): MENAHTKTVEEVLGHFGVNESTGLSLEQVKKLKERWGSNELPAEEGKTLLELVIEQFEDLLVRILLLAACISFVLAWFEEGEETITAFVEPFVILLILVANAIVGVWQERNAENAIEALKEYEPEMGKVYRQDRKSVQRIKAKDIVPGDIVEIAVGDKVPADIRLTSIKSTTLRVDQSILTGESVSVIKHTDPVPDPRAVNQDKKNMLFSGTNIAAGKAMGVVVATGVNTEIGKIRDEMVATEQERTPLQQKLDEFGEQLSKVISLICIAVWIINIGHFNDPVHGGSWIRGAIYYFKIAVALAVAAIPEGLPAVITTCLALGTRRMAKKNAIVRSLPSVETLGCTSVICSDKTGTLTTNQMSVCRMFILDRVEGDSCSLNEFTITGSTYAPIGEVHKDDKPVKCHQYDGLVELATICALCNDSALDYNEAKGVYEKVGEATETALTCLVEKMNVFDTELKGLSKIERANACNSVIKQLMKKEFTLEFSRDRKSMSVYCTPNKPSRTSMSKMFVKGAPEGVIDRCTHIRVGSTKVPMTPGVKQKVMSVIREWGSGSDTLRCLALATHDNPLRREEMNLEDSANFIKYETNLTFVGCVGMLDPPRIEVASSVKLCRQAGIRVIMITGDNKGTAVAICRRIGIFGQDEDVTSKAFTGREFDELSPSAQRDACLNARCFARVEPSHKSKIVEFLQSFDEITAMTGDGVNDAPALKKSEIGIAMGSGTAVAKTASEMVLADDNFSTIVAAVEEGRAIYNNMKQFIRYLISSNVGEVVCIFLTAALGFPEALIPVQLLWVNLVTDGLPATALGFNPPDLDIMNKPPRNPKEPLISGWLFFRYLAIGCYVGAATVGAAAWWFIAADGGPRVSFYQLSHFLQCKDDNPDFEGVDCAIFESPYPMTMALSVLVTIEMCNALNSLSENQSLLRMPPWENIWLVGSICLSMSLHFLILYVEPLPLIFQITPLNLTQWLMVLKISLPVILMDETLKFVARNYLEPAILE
Description: A portion at each concentration (54 µl) was aliquoted into 4 designated wells of the microplate (two of four wells were controls). Each well was mixed with ATP solution (20 mM, 6 µl), except the controls, using an 8 channel pipette. The controls were assayed in the absence of ATP or calcium.
The plate was incubated with the lid on, for 30 min at 37°C, colour reagent (160 µl) was then added and mixed with citrate solution (34%, 30 µl). The plate was developed at room temperature for 30 min then absorbance at 655 nm was read from the microplate reader. The Ca^2+-ATPase activity was quantitated, from a Pi standard curve, as concentration of liberated inorganic phosphate.
Stock solutions (10 mM) of test substance were prepared in DMSO, then series dilutions were made either in DMSO or in 1M HEPES to produce the dose-response concentrations. The maximum concentration of DMSO in the final assay solution was 2.5%.
Each concentration of test substance was assayed in duplicate in the presence and absence of ATP or calcium. Phosphate standards are run on each plate as follows:
Effect of gingerols and their derivatives on the Ca^2+-ATPase activity of dog cardiac SR.

[1] = result in words, guinea pig atria

activity at 10 µM (Lipoxygenase (LP)): 61%
SMILES: CCCCCCCCCC(O)C(=O)c1ccc(O)c(OC)c1 (centres unmarked) [2-hydroxy-1-(4-hydroxy-3-methoxyphenyl)undecan-1-one]
Cyclooxygenase activity % activity (Cyclo-oxygenase (COX); final concentration of 10 µM): 95% | Number of capsaicin-sensitive cells responding (DRG neuronal cells; 10 µM applied for 1 min): 2 | Peak [Ca^2+]i (Average ±SD) (DRG neuronal cells; 10 µM applied for 1 min): 215 ± 7 nM

SMILES: COc1cc(CNC(=O)CCCC/C=C/C(C)C)ccc1O [Capsaicin, reference compound]
Number of capsaicin-sensitive cells responding (DRG neuronal cells; high responses, 10 µM): 5 | Peak [Ca^2+]i (Average ±SD) (DRG neuronal cells; high responses, 10 µM): 824 ± 122 (high responses) nM | evoked [Ca^2+]i transients (DRG neuronal cells; in Ca^2+-free medium or on application of ruthenium red (1 µM)): abolished or greatly diminished | Number of capsaicin-sensitive cells responding (DRG neuronal cells; low responses, 10 µM): 10 | Peak [Ca^2+]i (Average ±SD) (DRG neuronal cells; low responses, 10 µM): 134 ± 78 (low responses) nM | tachycardial and inotropic effects on guinea pig atria (guinea pig atria; result in words): tachycardial and inotropic effects

SMILES: C[C@H]1O[C@@H](O[C@H]2[C@@H](O)C[C@H](O[C@H]3[C@@H](O)C[C@H](O[C@H]4CC[C@@]5(C)[C@H](CC[C@@H]6[C@@H]5C[C@@H](O)[C@]5(C)[C@@H](C7=CC(=O)OC7)CC[C@]65O)C4)O[C@@H]3C)O[C@@H]2C)C[C@H](O)[C@@H]1O [Digoxin, reference compound]
time for tension to reach maximum after addition of a dose (guinea pig atria; guinea pig atria): a few mins

SMILES: COc1ccc2c(c1)c(CC(=O)O)c(C)n2C(=O)c1ccc(Cl)cc1 [Indomethacin, reference compound]
Cyclooxygenase activity % activity (Cyclo-oxygenase (COX); 1 µM): 23%

activity at 0.5 µM (Lipoxygenase (LP); 0.5 µM): 20%
SMILES: CC(Cc1ccc(O)c(O)c1)C(C)Cc1ccc(O)c(O)c1 (centres unmarked) [NDGA, reference compound]

activity at 10 µM (Lipoxygenase (LP)): 0%
SMILES: CCCCCCCC=CC(=O)CCc1ccc(O)c(OC)c1 [[8]-shogaol, 1-(4-hydroxy-3-methoxyphenyl)dodecan-4-ene-3-one, reference compound]
Cyclooxygenase activity % activity (Cyclo-oxygenase (COX); final concentration of 10 µM): 21% | Number of capsaicin-sensitive cells responding (DRG neuronal cells; 10 µM applied for 1 min): 2 | Peak [Ca^2+]i (Average ±SD) (DRG neuronal cells; 10 µM applied for 1 min): 110 ± 56 nM

SMILES: COc1cc(CCC(=O)CC(O)CCCCCCC(O)CC(=O)CCc2ccc(O)c(OC)c2)ccc1O (centres unmarked) [bisgingerol, 5,12-dihydroxy-1,16-bis(4-hydroxy-3-methoxyphenyl)hexadecane-3,14-dione]
FORCE OF CONTRACT^n (guinea pig atria; [1]): inactive | HEART RATE (guinea pig atria; [1]): inactive

SR Ca^2+-ATPase (SR Ca^2+-ATPase): inactive
SMILES: CCCCCCCC(O)CC(=O)CCc1ccc2c(c1)OCO2 (centres unmarked) [drawing 42]

— EP1056700B1, “MEDICINAL USES OF PHENYLALKANOLS AND DERIVATES” (ZingoTX Pty Ltd, priority 1997, dated 1999)
